Test results published in patent US20110281836A1, “Silent desensitizers of neuronal NACHR and methods of use thereof” (priority 2008, published 2011).

Experiments:
α7 nAChRs = details: radioligand binding assays; cited from earlier work
α4β2 nAChRs [1] = target: T1, α4β2 nAChRs (Homo sapiens, UniProt P17787+P43681); details: preincubated for 10 min with the cells; complete desensitization; cited from earlier work
T1 construct: expressed in transfected cells; host or cells: SH-EP1 (SH-EP1-pcDNA-hα4β2)

α3β4 nAChRs [2] = target: T2, α3β4 nAChRs (Rattus norvegicus, UniProt P04757+P12392); details: concentrations up to 10 μM, even after preincubation; cited from earlier work
T2 construct: expressed in transfected cells; host or cells: HEK293 (KXα3β4R2)

α3β4 nAChRs [3] = target: T2, α3β4 nAChRs; details: radioligand binding assays; cited from earlier work
α4β2 nAChRs [4] = target: T1, α4β2 nAChRs; details: cited from earlier work
α4β2 nAChRs [5] = target: T3, α4β2 nAChRs (Rattus norvegicus, UniProt P09483+P12390); test: radioligand ([3H]epibatidine) competition binding, α4β2 nAChR
T3 construct: expressed in transfected cells; host or cells: HEK293 (KXα4β2)
Protocol: (§1) A. Cell Lines and Cell Culture. The cell lines KXα3β4R2, expressing rat α3β4 nAChRs, and KXα4β2, expressing rat α4β2 nAChRs, were established previously by stably transfecting human embryonic kidney 293 cells with combinations of rat nAChR subunit genes. These cell lines are maintained in minimum essential medium supplemented with 10% fetal bovine serum, 100 units/mL penicillin G, […] streptomycin, and 0.7 mg/mL G418 (Geneticin) at 37° C. with 5% CO2 in a humidified incubator. The cell line SH-EP1-pcDNA-hα4β2, expressing human α4β2 nAChRs, was described previously and are available. The SH-EP1-pcDNA-hα4β2 cells are grown in Dulbecco's modified Eagle's medium supplemented with 5% fetal bovine serum, 10% horse serum, 100 units/mL penicillin G, 100 μg/mL streptomycin, 320 μg/mL hygromycin B (Calbiochem, La Jolla, Calif.), 400 units/mL Zeocin at 37° C. with 5% CO2 in a humidified incubator.
B. nAChR Binding Affinity and Sub-type Selectivity Assay. The Ki values of compounds for binding to α3β4, α4β2 and other nAChR sub-types will be measured by competition experiments with [3H]epibatidine or other labeled ligands. Not intending to be bound by any one approach, one radioligand binding assay used for measuring the binding of [3H]epibatidine to nAChRs is described below.
In brief, cultured cells at above about 80% confluence will be removed from their flasks (80 cm^2) with a disposable cell scraper and will be placed in 10 mL of 50 mM Tris-HCl buffer, pH 7.4, 4° C. The cell suspension will be centrifuged at 10,000 g for 5 min and the pellet will be collected. For cells undergoing prolonged treatment with nicotinic agonists during culturing, the pellet will be washed two more times by centrifugation in fresh buffer to remove residual drug. The cell pellet will then homogenized in 10 mL of buffer with a Polytron homogenizer (12-mm aggregate, 26,000 rpm, 20 s; model PT2100; Kinematica, Basel, Switzerland) and will be centrifuged at 36,000 g for 10 min at 4° C. The membrane pellet will be resuspended in fresh buffer, and aliquots of the membrane preparation equivalent to 30 to 200 μg of protein will be used for binding assays. The concentration of [3H]epibatidine used will be 100 pM for competition binding assays and 2.4 nM, which is a saturating concentration for the α4β2 receptor subtype, for measuring receptor density. Nonspecific binding will be assessed in parallel incubations in the presence of 300 μM nicotine. Bound and free ligands will be separated by vacuum filtration through Whatman GF/C filters treated with 0.5% polyethylenimine. The filter-retained radioactivity will be measured by liquid scintillation counting. […] Data from saturation and competition binding assays will be analyzed using Prism 4 (GraphPad Software, San Diego, Calif.).

[6] = stability of the isolated HCl salt on exposure to air; type: physicochemical; details: white solid, larger scale
From the text: A gram-scale synthesis of sazetidine A is outlined in FIG. 1a. The Boc-protected azidityl methyl alcohol 2 and 3-bromo-5-hydroxy pyridine (3) are both commercially available. Treatment with PPh3 and DEAD according to the Mitsunobu protocol formed ether derivative 4 in 70% yield. Palladium-mediated coupling of the bromo-substituted pyridine 4 with 5-hexyn-1-ol under modified Sonogashira conditions furnished Boc-protected sazetidine A in 73% yield. Deprotection of the Boc-group with HCl was expected to give sazetidine A in salt form as published in the literature.

[7] = in vivo; cited from earlier work
α3β4 nAChRs [8] = target: T2, α3β4 nAChRs; test: radioligand ([3H]epibatidine) competition binding, α3β4 nAChR
Protocol: as §1, with “The SH-EP1-pcDNA-hα4β2 cells are grown in Dulbecco's modified Eagle's medium supplemented with 5% fetal bovine serum, 10% horse serum, 100 units/mL penicillin G, 100 μg/mL streptomycin, 320 μg/mL hygromycin B (Calbiochem, La Jolla, Calif.), 400 units/mL Zeocin at 37° C. with 5% CO2 in a humidified incubator.” left out
B. nAChR Binding Affinity and Sub-type Selectivity Assay. The Ki values of compounds for binding to α3β4, α4β2 and other nAChR sub-types will be measured by competition experiments with [3H]epibatidine or other labeled ligands. […]
In brief, cultured cells at above about 80% confluence will be removed from their flasks (80 cm^2) with a disposable cell scraper and will be placed in 10 mL of 50 mM Tris-HCl buffer, pH 7.4, 4° C. […] Nonspecific binding will be assessed in parallel incubations in the presence of 300 μM nicotine. […] The filter-retained radioactivity will be measured by liquid scintillation counting. […] Data from saturation and competition binding assays will be analyzed using Prism 4 (GraphPad Software, San Diego, Calif.).

α4β2 nAChRs [9] = target: T1, α4β2 nAChRs; test: desensitizer test: 86Rb+ efflux after 10 min preincubation, α4β2 nAChR; type: cell-based
Protocol: as §1, with “The SH-EP1-pcDNA-hα4β2 cells are grown in Dulbecco's modified Eagle's medium supplemented with 5% fetal bovine serum, 10% horse serum, 100 units/mL penicillin G, 100 μg/mL streptomycin, 320 μg/mL hygromycin B (Calbiochem, La Jolla, Calif.), 400 units/mL Zeocin at 37° C. with 5% CO2 in a humidified incubator.” left out
C. nAChR Functional Assay. The agonist, antagonist and/or desitizer activity of compounds of the invention can be evaluated by measuring its blockade of nicotine-stimulated 86Rb+ efflux. […]
In brief, cells will be plated into 24-well plates coated with poly-D-lysine. […] Radioactivity of assay samples and lysates will be measured by liquid scintillation counting. Total loading (cpm) will be calculated as the sum of the assay sample and the lysate of each well. The amount of 86Rb+ efflux will be expressed as a percentage of 86Rb+ loaded. […] IC50 values will be determined by nonlinear least-squares regression analyses (GraphPad Software).
D. Measurement of Desensitization. Not intending to be bound by any one method, desensitization may be measured, for example, by the method described below. […]

Row | SMILES | selectivity, affinity at α4β2 compared to α7 nAChRs (α7 nAChRs) | EC50 (α4β2 nAChRs [1]) [µM] | effect on the function of α3β4 nAChRs (α3β4 nAChRs [2]) | selectivity, affinity at α4β2 compared to α3β4 nAChRs (α3β4 nAChRs [3]) | agonist activity at α4β2 nAChRs (α4β2 nAChRs [4]; added alone) | antagonist activity at α4β2 receptors (α4β2 nAChRs [4]; added simultaneously with an agonist, such as nicotine) | Ki (α4β2 nAChRs [5]) [µM] | stability on exposure to air [6] | analgesic potency [7] | Ki (α3β4 nAChRs [8]) [µM] | decrease in Ki relative to sazetidine A (α4β2 nAChRs [5]; triazole in place of the alkynyl group) | selectivity for the α4β2 receptor (α4β2 nAChRs [5]; α4β2 over α3β4, from Ki values) | IC50 (α4β2 nAChRs [9]) [µM]
1 | OCCCCC#Cc1cncc(OCC2CCN2)c1 (centres unmarked) [sazetidine A] | > 3,500 fold | 0.026 | no effect | greater than 10,000 fold | low agonist activity | no typical antagonist activity | 0.00041 | decomposition of the material to a yellow-brown wet solid |  |  |  |  | 
2 | Clc1ccc(C2CC3CCC2N3)cn1 (centres unmarked) [Epibatidine] |  |  |  |  |  |  |  |  | ~200 times that of morphine |  |  |  | 
3 | OCCCCc1cn(-c2cncc(OCC3CCN3)c2)nn1 (centres unmarked) [triazetidine O] |  |  |  |  |  |  | 0.00351 |  |  | 62 | approximately 10 fold | 17,692 fold | 0.1
